Test results as given in publication PMC2275798 (The Journal of biological chemistry, 2007).

Legend:
[1] = target: T1, LSECtin carbohydrate-recognition domain (CRD) (Homo sapiens, UniProt Q6UXB4); type: binding
T1 sequence (Q6UXB4 160-293): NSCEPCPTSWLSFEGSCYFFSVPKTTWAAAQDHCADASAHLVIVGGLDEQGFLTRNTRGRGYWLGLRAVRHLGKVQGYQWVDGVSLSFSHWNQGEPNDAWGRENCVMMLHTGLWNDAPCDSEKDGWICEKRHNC

[2] = target: T1, LSECtin carbohydrate-recognition domain (CRD); type: binding; remark: listed apart in the source
[3] = target: T2, Ebola virus surface glycoprotein GP1 (Fc fusion) GP1 (Zaire ebolavirus, UniProt Q05320)
T2 chain: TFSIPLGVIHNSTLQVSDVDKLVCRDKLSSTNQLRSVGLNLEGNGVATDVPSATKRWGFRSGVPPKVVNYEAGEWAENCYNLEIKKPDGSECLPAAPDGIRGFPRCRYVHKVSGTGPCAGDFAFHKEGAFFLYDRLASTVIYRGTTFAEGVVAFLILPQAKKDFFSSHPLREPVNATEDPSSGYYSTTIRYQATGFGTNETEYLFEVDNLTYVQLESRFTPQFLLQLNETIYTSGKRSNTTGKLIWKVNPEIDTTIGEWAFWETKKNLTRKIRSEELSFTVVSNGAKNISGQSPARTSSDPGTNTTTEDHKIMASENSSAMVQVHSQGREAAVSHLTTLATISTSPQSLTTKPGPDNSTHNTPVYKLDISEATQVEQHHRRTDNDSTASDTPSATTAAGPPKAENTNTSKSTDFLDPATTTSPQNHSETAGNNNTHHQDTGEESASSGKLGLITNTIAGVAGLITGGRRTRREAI

`CC(=O)N[C@H]1[C@H](O[C@@H]2C(O)O[C@H](CO)[C@@H](O)[C@@H]2O)O[C@H](CO)[C@@H](O)[C@@H]1O` (stereo partly drawn) [GlcNAcβ1-2Man] showed a Ki [1] of 3.5 µM.

In the case of `OC[C@H]1O[C@H](OC[C@H]2OC(O)[C@@H](O)[C@@H](O[C@H]3O[C@H](CO)[C@@H](O)[C@H](O)[C@@H]3O)[C@@H]2O)[C@@H](O)[C@@H](O)[C@@H]1O` (stereo partly drawn) [branched trimannose oligosaccharide], the KI [2] is reported as “The branched trimannose oligosaccharide, which forms the core of the complex glycans”.

B1: LSECtin CRD (protein)
chain: FEGSCYFFSVPKTTWAAAQDHCADASAHLVIVGGLDEQGFLTRNTRGRGYWLGLRAVRHLGKVQGYQWVDGVSLSFSHWNQGEPNDAWGRENCVMMLHTGLWNDAPCDSEKDGWIC
For B1, the Kd [3] was 0.0037 µM.
